In paper PMC6934184, “Selective DNA-PKcs inhibition extends the therapeutic index of localized radiotherapy and chemotherapy” (The Journal of Clinical Investigation, 2019):

Target: T1, ROCK1 (Homo sapiens, UniProt Q13464)
T1 construct: purchased Thermo Fisher Scientific (Life Technologies) SelectScreen
Assay: SelectScreen Z'LYTE
Type: biochemical
Summary of the method: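 SelectScreen broad panel; activity (Z'LYTE, Adapta) plus binding formats. ATP: Km app for CSF1R Z'LYTE; 10 for CAMK1 Adapta. Readout = % per kinase.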

T1 sequence (Q13464 whole entry): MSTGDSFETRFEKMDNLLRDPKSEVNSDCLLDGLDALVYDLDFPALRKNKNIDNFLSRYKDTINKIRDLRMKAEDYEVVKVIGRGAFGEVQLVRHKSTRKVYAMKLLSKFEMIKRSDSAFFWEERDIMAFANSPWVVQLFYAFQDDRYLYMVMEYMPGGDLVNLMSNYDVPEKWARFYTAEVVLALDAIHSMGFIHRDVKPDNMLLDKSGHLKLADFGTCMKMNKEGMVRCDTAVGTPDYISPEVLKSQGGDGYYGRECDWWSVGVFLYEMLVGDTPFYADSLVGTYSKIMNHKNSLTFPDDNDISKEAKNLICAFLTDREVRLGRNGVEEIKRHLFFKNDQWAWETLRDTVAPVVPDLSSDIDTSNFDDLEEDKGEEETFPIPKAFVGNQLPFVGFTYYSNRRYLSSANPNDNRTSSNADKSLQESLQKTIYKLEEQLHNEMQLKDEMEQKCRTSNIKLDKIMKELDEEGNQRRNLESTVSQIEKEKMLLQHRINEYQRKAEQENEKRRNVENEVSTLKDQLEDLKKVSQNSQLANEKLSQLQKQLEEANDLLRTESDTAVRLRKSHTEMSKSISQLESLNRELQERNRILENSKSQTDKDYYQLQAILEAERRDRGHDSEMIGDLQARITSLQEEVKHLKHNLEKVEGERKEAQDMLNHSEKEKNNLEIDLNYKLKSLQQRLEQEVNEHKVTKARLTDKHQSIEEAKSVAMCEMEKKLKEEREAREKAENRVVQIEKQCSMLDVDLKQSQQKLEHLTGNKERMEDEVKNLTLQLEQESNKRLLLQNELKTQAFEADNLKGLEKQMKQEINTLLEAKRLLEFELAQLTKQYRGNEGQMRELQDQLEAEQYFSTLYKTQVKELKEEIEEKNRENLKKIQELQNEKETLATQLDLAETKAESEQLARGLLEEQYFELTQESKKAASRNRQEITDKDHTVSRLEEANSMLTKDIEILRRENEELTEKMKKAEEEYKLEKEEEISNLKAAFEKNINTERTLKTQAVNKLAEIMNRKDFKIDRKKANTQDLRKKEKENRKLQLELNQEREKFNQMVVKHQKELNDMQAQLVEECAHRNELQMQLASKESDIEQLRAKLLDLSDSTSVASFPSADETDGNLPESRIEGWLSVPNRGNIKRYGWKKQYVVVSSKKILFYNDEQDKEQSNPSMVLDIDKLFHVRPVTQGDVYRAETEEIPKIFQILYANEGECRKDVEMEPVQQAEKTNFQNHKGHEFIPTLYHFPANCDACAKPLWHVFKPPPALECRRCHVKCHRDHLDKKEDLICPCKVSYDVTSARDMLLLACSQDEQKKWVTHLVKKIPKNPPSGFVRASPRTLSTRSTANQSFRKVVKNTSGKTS

SMILES: CN(C(=O)CN1CCOCC1)c1ccc2sc3c(-c4cccc5c(=O)cc(N6CC7CCC(C6)O7)oc45)cccc3c2c1 [NU5455]
- inhibition at 1 µM: -9.5%
